Assay: Moisture-sorption isotherm (VTI SGA-100 Symmetric Vapor Analyzer)
Format: physicochemical
Details: range from about 25% RH to about 75% RH at 25° C.; FIG. 8
Procedure: 10. Moisture-sorption isotherms were collected in a VTI SGA-100 Symmetric Vapor Analyzer using approximately 10 mg of sample. The sample was dried at 60° C. until the loss rate of 0.0005 wt %/min was obtained for 10 minutes. The sample was tested at 25° C. and 3 or 4, 5, 15, 25, 35, 45, 50, 65, 75, 85, and 95% RH. Equilibration at each RH was reached when the rate of 0.0003 wt %/min for 35 minutes was achieved or a maximum of 600 minutes.

Compound: O=C(C(=O)N1CCN(C(=O)c2ccccc2)CC1)c1c[nH]c2c(-n3ccnn3)ncc(F)c12
- weight gain / weight water uptake (moisture-sorption isotherm): about 0.1%

From patent publication US7601715B2, “Process for preparing triazole substituted azaindoleoxoacetic piperazine derivatives and novel salt forms produced therein” (Bristol-Myers Squibb Company, priority 2005, dated 2009)
